According to US4263302A, “Quinolinecarboxylic acid substituted penicillins and pharmaceutical compositions containing the same” (Mitsui Toatsu Chemicals, Incorporated, priority 1978, dated 1981):
In brackets after ≈: the same amount, converted by molar mass. Where two headings read alike, the source gives them in different places.

What was measured:
[1] = tested on: Klebsiella pneumoniae (ATCC 10031); assay: antibacterial activity, minimum growth inhibitory concentration method (MIC method); type: cell-based; conditions: ATCC10031, HIA medium, 37° C., 18 hours
Description: (§1) The antibacterial activity was tested by the minimum growth inhibitory concentration method (MIC method).
(§2) A commercially available heart infusion agar medium (to be abbreviated HIA medium) was used as an assay medium, and a commercially available trypto-soy bouillon medium (to be abbreviated TSB) was used as a medium for the growth of test bacterial strains.
(§3) The test compound was diluted with the melted HIA medium to 100 μg/ml as a maximum concentration, and then serially diluted doubly. The dilutions were poured into sterilized Petri dishes respectively and allowed to cool and solidify to prepare plates containing the test compound.
(§4) As a control, carbenicillin sodium (CB-PC) was used.
(§5) The test strain was cultivated in the TBS medium at 37° C. for 18 hours, and the culture broth was diluted with a freshly prepared TBS medium to 50 to 500 times, and one platinum loopful of the dilution was inoculated in each of the plates containing the test compound. The plate was incubated at 37° C. for 18 hours. The state of growth of the strain on the plate was observed, and the minimum growth inhibitory concentration (MIC) of the compound was determined.

[2] = tested on: Salmonellaenteritidis (KB-21); assay: as above; type: cell-based; conditions: read-out: Minimum growth inhibitory concentration (MIC)
Description: as §1, §2, §3, §4, §5

[3] = tested on: Pseudomonas aeruginosa (395); assay: as above; type: cell-based; conditions: HIA medium, 37° C., 18 hours
Description: as §1, §2, §3, §4, §5

[4] = tested on: Escherichia coli (K-12); assay: as above; type: cell-based; conditions: HIA medium, 37° C., 18 hours
Description: as §1, §2, §3, §4, §5

[5] = tested on: Serratia marcescens (S-33); assay: as above; type: cell-based; conditions: HIA medium, 37° C., 18 hours
Description: as §1, §2, §3, §4, §5

[6] = tested on: Staphylococcus aureus (Y-8); assay: as above; type: cell-based; conditions: HIA medium, 37° C., 18 hours
Description: as §1, §2, §3, §4, §5

[7] = tested on: Pseudomonas aeruginosa (IFO-3901); assay: as above; type: cell-based; conditions: IFO3901, HIA medium, 37° C., 18 hours
Description: as §1, §2, §3, §4, §5

[8] = tested on: Shigella flexneri (K-A); assay: as above; type: cell-based; conditions: HIA medium, 37° C., 18 hours
Description: as §1, §2, §3, §4, §5

[9] = tested on: Staphylococcus aureus (FDA 209P); assay: as above; type: cell-based; conditions: FDA209P, read-out: Minimum growth inhibitory concentration (MIC)
Description: as §1, §2, §3, §4, §5

[10] = tested on: Enterobacter aerogenes (IFO-3320); assay: as above; type: cell-based; conditions: Klebsiella aerogenes, read-out: Minimum growth inhibitory concentration (MIC)
Description: as §1, §2, §3, §4, §5

[11] = tested on: Proteus vulgaris (OX-19); assay: as above; type: cell-based; conditions: HIA medium, 37° C., 18 hours
Description: as §1, §2, §3, §4, §5

[12] = tested on: Pseudomonas aeruginosa; conditions: in words, background literature; cited from earlier work
[13] = Salmonellaenteritidis (KB-21), HIA medium, 37° C., 18 hours
[14] = IFO3320, Enterobacter aerogenes (IFO-3320), HIA medium, 37° C., 18 hours

**Q.** Which MIC [1] does the source give for `CC1(C)S[C@@H]2[C@H](NC(=O)C(C(=O)O)c3ccccc3)C(=O)N2[C@H]1C(=O)O` (stereo partly drawn) [CB--PC, disodium-α-carboxybenzyl penicillin, reference compound] here?
**A.** The MIC was > 100 µg/mL.

**Q.** And the MIC ([2]; 18 h)?
**A.** The MIC was 1.56 µg/mL.

**Q.** What about the MIC [3] of the same compound?
**A.** The MIC was 25 µg/mL.

**Q.** And the MIC [4]?
**A.** Its MIC is 6.25 µg/mL.

**Q.** And the MIC [5]?
**A.** Its MIC is 3.13 µg/mL.

**Q.** What about the MIC [6] of the same compound?
**A.** The MIC was 6.25 µg/mL.

**Q.** What about the MIC [7] of the same compound?
**A.** Its MIC is 100 µg/mL.

**Q.** What about the MIC [8] of the same compound?
**A.** Its MIC is 1.56 µg/mL.

**Q.** And the MIC ([9]; Staphylococcus aureus, 18 h)?
**A.** The MIC was 1.56 µg/mL.

**Q.** What about the MIC ([10]; IFO3320, 18 h) of the same compound?
**A.** Its MIC is 1.56 µg/mL.

**Q.** What about the MIC [11] of the same compound?
**A.** Its MIC is 3.13 µg/mL.

**Q.** And the “activity on Pseudomonas aeruginosa” value [12]?
**A.** Its value is “low activity”.

**Q.** What about the “effect on Pseudomonas aeruginosa-induced infections of difficultly-curable nature” value [12] of the same compound?
**A.** Its value is “ineffective”.

**Q.** With `CC1(C)CC(=O)c2c([nH]cc(C(=O)N[C@@H](C(=O)N[C@@H]3C(=O)N4[C@@H]3SC(C)(C)[C@@H]4C(=O)O)c3ccccc3)c2=O)C1` [Synthesis Example 1, 6-[D-(-)-α-(7,7-dimethyl-4,5-dioxo-1,4,5,6,7,8-hexahydroquinoline-3-carboxamido)phenylacetamido]-penicillanic acid] as the compound, how does the MIC [1] read?
**A.** Its MIC is 12.5 µg/mL (≈ 22.1 µM).

**Q.** And the MIC [2, 13]?
**A.** Its MIC is 0.39 µg/mL (≈ 0.688 µM).

**Q.** What about the MIC [3] of the same compound?
**A.** The MIC was 1.56 µg/mL (≈ 2.75 µM).

**Q.** And the MIC [4]?
**A.** The MIC was 0.78 µg/mL (≈ 1.38 µM).

**Q.** What about the MIC [5] of the same compound?
**A.** The MIC was 3.13 µg/mL (≈ 5.52 µM).

**Q.** What about the MIC [6] of the same compound?
**A.** Its MIC is 6.25 µg/mL (≈ 11 µM).

**Q.** What about the MIC [7] of the same compound?
**A.** Its MIC is 6.25 µg/mL (≈ 11 µM).

**Q.** And the MIC [8]?
**A.** The MIC was 0.39 µg/mL (≈ 0.688 µM).

**Q.** And the MIC ([9]; Staphylococcus aureus, 18 h)?
**A.** Its MIC is 1.56 µg/mL (≈ 2.75 µM).

**Q.** And the MIC [10, 14]?
**A.** The MIC was 0.78 µg/mL (≈ 1.38 µM).

**Q.** What about the MIC [11] of the same compound?
**A.** Its MIC is 1.56 µg/mL (≈ 2.75 µM).

**Q.** Which MIC [1] does the source give for `CCn1cc(C(=O)N[C@@H](C(=O)N[C@@H]2C(=O)N3[C@@H]2SC(C)(C)[C@@H]3C(=O)O)c2ccccc2)c(=O)c2c1CCCC2=O` [Synthesis Example 2, 6-[D-(-)-α-(1-ethyl-4,5-dioxo-1,4,5,6,7,8-hexahydroquinoline-3-carboxamodo)phenylacetamido]-penicillanic acid] here?
**A.** Its MIC is 25 µg/mL (≈ 44.1 µM).

**Q.** And the MIC [2, 13]?
**A.** Its MIC is 0.78 µg/mL (≈ 1.38 µM).

**Q.** And the MIC [3]?
**A.** Its MIC is 3.13 µg/mL (≈ 5.52 µM).

**Q.** What about the MIC [4] of the same compound?
**A.** The MIC was 3.13 µg/mL (≈ 5.52 µM).

**Q.** What about the MIC [5] of the same compound?
**A.** The MIC was 3.13 µg/mL (≈ 5.52 µM).

**Q.** And the MIC [6]?
**A.** The MIC was 6.25 µg/mL (≈ 11 µM).

**Q.** What about the MIC [7] of the same compound?
**A.** The MIC was 6.25 µg/mL (≈ 11 µM).

**Q.** And the MIC [8]?
**A.** The MIC was 0.78 µg/mL (≈ 1.38 µM).

**Q.** What about the MIC ([9]; Staphylococcus aureus (FDA 209P), HIA medium, 37° C., 18 hours) of the same compound?
**A.** Its MIC is 1.56 µg/mL (≈ 2.75 µM).

**Q.** And the MIC [10, 14]?
**A.** The MIC was 1.56 µg/mL (≈ 2.75 µM).

**Q.** And the MIC [11]?
**A.** The MIC was 3.13 µg/mL (≈ 5.52 µM).
